Structures can show the parent of a compound that is named as a salt. Where two headings read alike, the source gives them in different places.
What was measured:
[1] = tested on: aconitine arrhythmia in rats; assay: Antiarrhythmic action on aconitine arrhythmia in rats; format: in vivo, rat (strain: Sprague Dawley); conditions: aconitine infused 60 minutes after substance; for ED50: Rattus norvegicus, 1 h, read-out: ED 50%: dose which causes a 50% extension in the period of aconitine infusion
Protocol: Moreover, the novel compounds were administered orally or intravenously to male rats (strain: Sprague Dawley, weight: 200-230 g) to determine the antiarrhythmic activity. 45 minutes later, the animals were anesthetized by intraperitoneal administration of 100 mg/kg of thiobutabarbital sodium. Aconitine served as the arrhythmogenic substance, and was infused intravenously at a dosage rate of 0.005 mg/kg/minute 60 minutes after administration of the substance. In untreated animals (n=52), arrhythmias appeared in the ECG after 2.74±0.07 minutes. These arrhythmias can be delayed by antiarrhythmic drugs, as a function of the dose.
The dose which extends the infusion period by 50% (ED 50%) was determined from the linear relationship between the logarithm of the dose (mg/kg) of the trial substance and the relative extension of the period of aconitine infusion (Δ%).
(§1) The known antiarrhythmic drug propafenone [2-(2-hydroxy-3-propylamino-propoxy)-3-phenyl-propiophenone hydrochloride]was used as the comparative substance.

[2] = tested on: isolated left atrium of male guineapigs; assay: Antiarrhythmic action on the isolated guineapig atrium (drop in maximum rhythmicity); design: species or system guineapig (strain: Pirbright white); conditions: Cavia porcellus, Tyrode's solution pH 7.4, 32° C., read-out: Maximum rhythmicity (ED 50%): concentration which causes a 50% drop in the maximum rhythmicity
Protocol: The antiarrhythmic activity of the compounds according to the invention was determined on the isolated left atrium of male guineapigs (strain: Pirbright white, weight: 350 to 450 g).
Atria suspended in an organ bath (volume: 125 ml) with carbogen-saturated Tyrode's solution (pH 7.4, 32° C.) were pre-loaded with 1.0 g and subjected to square-wave pulses having a base rhythm of 1 Hz and twice the excitation threshold (rheobase: 0.2-1.4 V, chronaxia: 0.3-0.5 msec).
The frequency (Hz) up to which contraction follows each stimulus (maximum rhythmicity, MR) was determined, by automatically and continuously increasing the frequency, as a criterion of the antiarrhythmic activity. The concentration which causes a drop in the maximum rhythmicity of 50% (EC 50%) was calculated from the linear relationship between the logarithm of the concentration (mg/l) and the relative drop in the maximum rhythmicity (%).
as §1

| Molecule | EC50 [2] [µg/mL] | ED50 ([1]; po, peroral administration) [mg/kg] | also measured |
| --- | --- | --- | --- |
| 2-[2'-Hydroxy-3'-(2-hydroxyethylamino)-propoxy]-β-(dimethylaminophenyl)-propiophenone hydrogen oxalate [Example 59] |  |  | ED 50%: dose which causes a 50% extension in the period of aconitine infusion ([1]; peroral administration): 21.5 mg/kg |
| CC(CCO)NCC(O)COc1ccccc1C(=O)CCc1ccccc1 (stereo not drawn) [Example 1, 2-[2'-Hydroxy-3'-(4-hydroxybut-2-ylamino)-propoxy]-β-phenyl-propiophenone hydrochloride] | 1.9 | 15 |  |
| COCC(C)NCC(O)COc1ccccc1C(=O)CCc1ccccc1 (stereo not drawn) [Example 2, 2-[2'-Hydroxy-3'-(3-methoxyprop-2-ylamino)-propoxy]-β-phenyl-propiophenone hydrochloride] | 0.874 | 46.4 |  |
| O=C(CCc1ccccc1)c1ccccc1OCC(O)CNC1CC1 (stereo not drawn) [Example 3, 2-(2'-Hydroxy-3'-cyclopropylamino-propoxy)-β-phenylpropiophenone hydrochloride] | 1.51 | 38.2 |  |
| O=C(CCc1ccccc1)c1ccccc1OCC(O)CNC1CCCCC1 (stereo not drawn) [Example 4, 2-(2'-Hydroxy-3'-cyclohexylamino-propoxy)-β-phenylpropiophenone hydrochloride] |  | 46.4 |  |
| C#CC(C)NCC(O)COc1ccccc1C(=O)CCc1ccccc1 (stereo not drawn) [Example 6, 2-[2'-Hydroxy-3'-(1-butyn-3-ylamino)-propoxy]-β-phenyl-propiophenone hydrochloride] | 1.71 |  |  |
| C#CC(C)(C)NCC(O)COc1ccccc1C(=O)CCc1ccccc1 (stereo not drawn) [Example 7, 2-[2'-Hydroxy-3'-(3-methyl-1-butyn-3-ylamino)-propoxy]-β-phenyl-propiophenone hydrochloride] | 1.66 |  |  |
| CC(C)(O)CCNCC(O)COc1ccccc1C(=O)CCc1ccccc1 (stereo not drawn) [Example 8, 2-[2'-Hydroxy-3'-(3-hydroxy-3-methyl-butylamino)-propoxy]-β-phenyl-propiophenone hydrochloride] |  | 21 |  |
| COCCNCC(O)COc1ccccc1C(=O)CCc1ccccc1 (stereo not drawn) [Example 9, 2-[2'-Hydroxy-3'-(2-methoxyethylamino)-propoxy]-β-phenyl-propiophenone hydrochloride] | 0.757 | 27 |  |
| CSCC(C)NCC(O)COc1ccccc1C(=O)CCc1ccccc1 (stereo not drawn) [Example 10, 2-[2'-Hydroxy-3'-(3-thiomethoxyprop-2-ylamino)-propoxy]-β-phenyl-propiophenone hydrochloride] | 1.13 | 46.4 |  |
| CC(CNCC(O)COc1ccccc1C(=O)CCc1ccccc1)c1ccccc1 (stereo not drawn) [Example 12, 2-[2'-Hydroxy-3'-(2-phenylpropylamino)-propoxy]-β-phenyl-propiophenone hydrochloride] | 1.25 |  |  |
| COc1ccc(CCNCC(O)COc2ccccc2C(=O)CCc2ccccc2)cc1OC (stereo not drawn) [Example 14, 2-[2'-Hydroxy-3'-(2-(3,4-dimethoxyphenyl)-ethylamino)propoxy]-β-phenyl-propiophenone hydrochloride] | 2.17 |  |  |
| COc1ccc(CCN(C)CC(O)COc2ccccc2C(=O)CCc2ccccc2)cc1OC (stereo not drawn) [Example 15, 2-[2'-Hydroxy-3'-[N-methyl-N-(2-(3,4-dimethoxyphenyl)ethylamino)]-propoxy]-β-phenyl-propiophenone hydrochloride] | 0.728 |  |  |
| CN(C)CCNCC(O)COc1ccccc1C(=O)CCc1ccccc1 (stereo not drawn) [Example 16, 2-[2'-Hydroxy-3'-(2-dimethylaminoethylamino)-propoxy]-β-phenyl-propiophenone bis-hydrochloride] |  | 29 |  |
| CN(C)CC(O)COc1ccccc1C(=O)CCc1ccccc1 (stereo not drawn) [Example 18, 2-[2'-Hydroxy-3'-(N,N-dimethylamino)-propoxy]-β-phenyl-propiophenone hydrochloride] | 1.3 |  |  |
| O=C(CCc1ccccc1)c1ccccc1OCC(O)CN1CCC(c2ccccc2)C1 (stereo not drawn) [Example 22, 2-[2'-Hydroxy-3'-(3-phenyl-pyrrolidino)-propoxy]-β-phenyl-propiophenone hydrochloride] | 1.21 |  |  |
| CCCNCC(O)COc1ccccc1C(=O)CCc1ccccc1OC (stereo not drawn) [Example 29, 2-(2'-Hydroxy-3'-n-propylamino-propoxy)-β-(2-methoxyphenyl)-propiophenone hydrochloride] | 1.71 |  |  |

| Molecule | EC50 [2] [µg/mL] | ED50 ([1]; po, peroral administration) [mg/kg] | also measured |
| --- | --- | --- | --- |
| CCCNCC(O)COc1ccccc1C(=O)CCc1ccc(OC)c(OC)c1 (stereo not drawn) [Example 36, 2-(2'-Hydroxy-3'-n-propylamino-propoxy)-β-(3,4-dimethoxyphenyl)-propiophenone hydrochloride] |  | 6.92 |  |
| CCCNCC(O)COc1ccc(Cl)cc1C(=O)CCc1ccccc1 (stereo not drawn) [Example 37, 2-(2'-Hydroxy-3'-n-propylamino-propoxy)-5-chloro-β-phenyl-propiophenone hydrochloride] |  | 46.4 |  |
| COCC(C)NCC(O)COc1ccc(Cl)cc1C(=O)CCc1ccccc1 (stereo not drawn) [Example 38, 2-[2'-Hydroxy-3'-(3-methoxy-prop-2-ylamino)-propoxy]-5-chloro-β-phenyl-propiophenone hydrochloride] |  | 21.5 |  |
| O=C(CCc1ccccc1)c1cc(Cl)ccc1OCC(O)CN1CCCCC1 (stereo not drawn) [Example 40, 2-(2'-Hydroxy-3'-piperidino-propoxy)-5-chloro-β-phenyl-propiophenone] |  | 46.4 |  |
| CCCN(CCC)CC(O)COc1ccc(C)cc1C(=O)CCc1ccc(Cl)cc1 (stereo not drawn) [Example 46, 2-(2'-Hydroxy-3'-di-n-propylamino-propoxy)-5-methyl-β-(4-chlorophenyl)-propiophenone hydrochloride] | 0.778 |  |  |
| CCCN(CCC)CC(O)COc1ccc(Cl)cc1C(=O)CCc1ccc(F)cc1 (stereo not drawn) [Example 47, 2-(2'-Hydroxy-3'-di-n-propylamino-propoxy)-5-chloro-β-(p-fluorophenyl)-propiophenone hydrochloride] | 1.45 |  |  |
| CCCNCC(O)COc1ccc(C)cc1C(=O)CCc1ccc(OC)c(OC)c1 (stereo not drawn) [Example 48, 2-(2'-Hydroxy-3'-n-propylamino-propoxy)-5-methyl-β-(3,4-dimethoxyphenyl)-propiophenone hydrochloride] | 0.923 |  |  |
| CC(C)NCC(O)COc1ccccc1C(=O)CCc1ccc(N(C)C)cc1 (stereo not drawn) [Example 56, 2-(2'-Hydroxy-3'-isopropylamino-propoxy)-β-(4-dimethylaminophenyl)-propiophenone hydrochloride] |  | 3.4 |  |
| CCCNCC(O)COc1ccccc1C(=O)CCc1ccc(N(CC)CC)cc1 (stereo not drawn) [Example 61, 2-(2'-Hydroxy-3'-n-propylamino-propoxy)-β-(4-diethylaminophenyl)-propiophenone hydrochloride] |  | 1.9 |  |
| CCCNCC(O)COc1ccc(Cl)cc1C(=O)CCc1ccc(N(C)C)cc1 (stereo not drawn) [Example 62, 2-(2'-Hydroxy-3'-n-propylamino-propoxy)-5-chloro-β-(4-dimethylaminophenyl)-propiophenone hydrochloride] |  | 21.5 |  |
| CCCNCC(O)COc1ccc(C)cc1C(=O)CCc1ccc(N(C)C)cc1 (stereo not drawn) [Example 63, 2-(2'-Hydroxy-3'-n-propylamino-propoxy)-5-methyl-β-(4-dimethylaminophenyl)-propiophenone hydrochloride] |  | 3.03 |  |
| CC(C)N(CC(O)COc1ccccc1C(=O)CCc1ccc(N(C)C)cc1)C(C)C (stereo not drawn) [Example 64, 2-[2'-Hydroxy-3'-(N,N-diisopropylamino)-propoxy]-β-(4-dimethylaminophenyl)-propiophenone hydrochloride] | 1.36 |  |  |
| CC(C)N(CC(O)COc1ccc(Cl)cc1C(=O)CCc1ccc(N(C)C)cc1)C(C)C (stereo not drawn) [Example 66, 2-[2'-Hydroxy-3'-(N,N-diisopropylamino)-propoxy]-5-chloro-β-(4-dimethylaminophenyl)-propiophenone hydrochloride] |  | 21.5 |  |
| Cc1ccc(OCC(O)CN2CCN(C)CC2)c(C(=O)CCc2ccc(N(C)C)cc2)c1 (stereo not drawn) [Example 68, 2-[2'-Hydroxy-3'-(4-methyl-piperazin-1-yl)-propoxy]-5-methyl-β-(4-dimethylaminophenyl)-propiophenone hydrochloride] |  | 46.4 |  |
| COCC(C)NCC(O)COc1ccc(C)cc1C(=O)CCc1ccc(N(C)C)cc1 (stereo not drawn) [Example 69, 2-[2'-Hydroxy-3'-(3-methoxy-prop-2-ylamino)-propoxy]-5-methyl-β-(4-dimethylaminophenyl)-propiophenone hydrochloride] |  | 31.6 |  |
| CCCNCC(O)COc1ccc(O)cc1C(=O)CCc1ccccc1 (stereo not drawn) [Example 71, 2-(2'-Hydroxy-3'-n-propylamino-propoxy)-5-hydroxy-β-phenyl-propiophenone hydrochloride] |  |  | ED50 ([1]; iv, intravenous administration (footnote 2)): 0.51 mg/kg |
| CCCNCC(O)COc1ccccc1C(=O)CCc1ccccc1 (stereo not drawn) [Propafenone, 2-(2'-hydroxy-3'-n-propylamino-propoxy)-β-phenyl-propiophenone hydrochloride, reference compound] | 2.02 |  |  |
